Data on five molecules can be found in patent US20230234936A1, “COMPOUND FOR TARGETING AND DEGRADING PROTEIN, AND PREPARATION METHOD THEREFOR AND USE THEREOF” (SHANGHAI LEADINGTAC PHARMACEUTICAL CO., LTD., priority 2020, published 2023).

Assay [1] deals with T1, IRAK4 kinase (Homo sapiens, UniProt Q9NWZ3).
T1 sequence (Q9NWZ3 1-460): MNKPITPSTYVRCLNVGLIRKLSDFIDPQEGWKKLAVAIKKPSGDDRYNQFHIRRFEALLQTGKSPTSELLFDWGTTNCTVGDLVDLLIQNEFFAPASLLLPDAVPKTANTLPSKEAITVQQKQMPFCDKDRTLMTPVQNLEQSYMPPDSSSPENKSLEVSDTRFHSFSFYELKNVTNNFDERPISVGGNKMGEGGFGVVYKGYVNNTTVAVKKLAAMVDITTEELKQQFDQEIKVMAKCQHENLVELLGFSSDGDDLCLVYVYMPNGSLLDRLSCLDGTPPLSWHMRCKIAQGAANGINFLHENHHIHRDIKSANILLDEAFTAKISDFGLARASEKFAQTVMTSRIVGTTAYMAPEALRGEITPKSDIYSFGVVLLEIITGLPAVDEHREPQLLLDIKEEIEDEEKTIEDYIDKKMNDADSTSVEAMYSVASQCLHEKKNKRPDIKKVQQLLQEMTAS
Nature of the assay: IRAK4 kinase activity test (KinEASE-STK S1 HTRF kit). The class given is biochemical. Particulars: 2.5 nM kinase, 1 μM biotinylated polypeptide substrate, 7 μM ATP, 37° C. 120 min. The gist of the method:
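Compound in DMSO, serially diluted to 10000–0.038 nM final, incubated with 2.5 nM kinase, 1 μM biotinylated peptide substrate and 7 μM ATP at 37° C for 120 min. Eu-anti-phospho-Ser/Thr antibody plus streptavidin-XL665 stopped the reaction (1 h RT). HTRF 665/620 nm ratio gave % inhibition versus control; IC50 from nonlinear log-concentration fit.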

In assay [2] the target is T2, IRAK4 protein in THP-1 cells (Homo sapiens, UniProt Q9NWZ3).
T2 construct: endogenous in cells; host or cells: THP-1
T2 sequence (Q9NWZ3 1-460): T1 sequence (Q9NWZ3 1-460)
Nature of the assay: Degradation of IRAK4 in THP-1 cells (Western blot). The class given is cell-based. Particulars: 24 hours, compound 1-3000 nM. The procedure, abridged: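 THP-1 cells (5×10^5/well) treated 24 h with compound at 1–3000 nM final. IRAK4 in lysates quantified by Western blot, normalized to internal reference and compared with control to give degradation rate; DC50 and Dmax from nonlinear fit of log concentration.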
On the technique in general: Immunoblotting shows a protein as a band on a membrane.

For assay [3], the target named is T3, IKZF1 in L363 cells (Homo sapiens, UniProt Q13422+Q96SW2).
T3 construct: endogenous in cells; host or cells: L363
T3 sequence (Q13422 whole entry): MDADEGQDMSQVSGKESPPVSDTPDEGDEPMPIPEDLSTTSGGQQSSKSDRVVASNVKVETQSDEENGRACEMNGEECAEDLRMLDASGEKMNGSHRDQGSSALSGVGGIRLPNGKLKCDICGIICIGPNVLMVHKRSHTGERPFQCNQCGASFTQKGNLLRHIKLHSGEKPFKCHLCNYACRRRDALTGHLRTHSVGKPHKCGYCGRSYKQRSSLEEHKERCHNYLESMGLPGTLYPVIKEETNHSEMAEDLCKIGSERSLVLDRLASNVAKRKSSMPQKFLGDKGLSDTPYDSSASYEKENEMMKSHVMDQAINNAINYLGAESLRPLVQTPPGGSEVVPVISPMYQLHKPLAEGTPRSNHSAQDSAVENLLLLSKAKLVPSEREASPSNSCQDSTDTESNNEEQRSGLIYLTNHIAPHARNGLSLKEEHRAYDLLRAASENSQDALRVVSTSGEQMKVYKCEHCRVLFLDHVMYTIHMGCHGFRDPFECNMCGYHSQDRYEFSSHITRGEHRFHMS
T3 sequence (Q96SW2 whole entry): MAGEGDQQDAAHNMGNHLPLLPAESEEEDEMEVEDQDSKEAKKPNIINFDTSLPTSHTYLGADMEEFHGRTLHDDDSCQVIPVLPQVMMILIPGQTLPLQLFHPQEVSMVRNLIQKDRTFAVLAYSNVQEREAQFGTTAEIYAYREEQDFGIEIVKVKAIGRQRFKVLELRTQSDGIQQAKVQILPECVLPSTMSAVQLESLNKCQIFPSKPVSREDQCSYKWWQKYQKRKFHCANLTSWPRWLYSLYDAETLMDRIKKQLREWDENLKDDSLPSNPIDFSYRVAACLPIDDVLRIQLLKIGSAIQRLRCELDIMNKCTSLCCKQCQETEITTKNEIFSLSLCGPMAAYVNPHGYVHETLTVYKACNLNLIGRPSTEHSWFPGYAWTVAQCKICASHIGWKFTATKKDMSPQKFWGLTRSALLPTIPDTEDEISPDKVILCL
T3 sequence (Q16531 whole entry partner): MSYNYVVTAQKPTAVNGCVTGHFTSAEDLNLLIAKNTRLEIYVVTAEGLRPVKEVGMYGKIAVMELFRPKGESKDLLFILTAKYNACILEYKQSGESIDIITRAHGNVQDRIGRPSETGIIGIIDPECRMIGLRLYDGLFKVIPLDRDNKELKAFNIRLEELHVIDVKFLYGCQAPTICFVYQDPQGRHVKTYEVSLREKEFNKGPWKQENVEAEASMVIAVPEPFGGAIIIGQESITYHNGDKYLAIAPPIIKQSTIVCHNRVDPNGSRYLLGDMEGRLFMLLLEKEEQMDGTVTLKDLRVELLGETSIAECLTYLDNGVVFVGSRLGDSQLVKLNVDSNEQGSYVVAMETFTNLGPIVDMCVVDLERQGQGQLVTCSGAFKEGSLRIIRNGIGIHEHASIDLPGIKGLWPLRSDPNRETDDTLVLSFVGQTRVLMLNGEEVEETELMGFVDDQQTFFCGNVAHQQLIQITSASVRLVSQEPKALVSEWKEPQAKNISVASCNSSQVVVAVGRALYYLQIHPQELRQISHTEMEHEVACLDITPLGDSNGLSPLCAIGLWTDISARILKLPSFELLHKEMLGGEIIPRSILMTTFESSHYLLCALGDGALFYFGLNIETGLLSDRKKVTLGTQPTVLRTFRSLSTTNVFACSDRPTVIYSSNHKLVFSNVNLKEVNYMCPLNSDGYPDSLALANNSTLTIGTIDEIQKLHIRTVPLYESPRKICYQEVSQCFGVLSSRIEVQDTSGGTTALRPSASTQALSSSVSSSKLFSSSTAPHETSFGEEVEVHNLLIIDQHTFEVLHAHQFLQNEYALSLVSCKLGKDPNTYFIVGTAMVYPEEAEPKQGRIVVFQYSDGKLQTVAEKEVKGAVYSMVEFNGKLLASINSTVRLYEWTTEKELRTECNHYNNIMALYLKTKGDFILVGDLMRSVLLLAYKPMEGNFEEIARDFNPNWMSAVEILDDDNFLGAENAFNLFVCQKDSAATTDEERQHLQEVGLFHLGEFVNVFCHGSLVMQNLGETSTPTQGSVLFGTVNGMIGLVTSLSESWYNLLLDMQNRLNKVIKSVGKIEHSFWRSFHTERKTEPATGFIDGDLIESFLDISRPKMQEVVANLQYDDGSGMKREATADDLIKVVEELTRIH
Description: Degradation of IKZF1 in L363 cells (Western blot). It counts as cell-based. To be noted: 1000 nM, 16 hours. The protocol: (§1) The 24-well cell culture plate was inoculated with 0.95 mL L363 cells (Nanjing Co-bioer) per well with a cell density of 6×10^5 cells/well. The cell plate was placed in a 5% carbon dioxide incubator and cultured at 37° C. for 8 hours, then 50 μL of compound solution was added. The final concentration of the compound was 1000 nM. After continuing to culture for 16 hours, the cells were collected into a 1.5 mL centrifuge tube and centrifuged at 3000 rpm and 4° C. for 5 minutes. Cell precipitation was cleaned twice with 1×DPBS, resuspended cells were lysed with 100 μL lysate (cell lysate was Western and IP cell lysate (Beyotime), supplemented with 1 mM mixture of phenylmethylsulfonyl fluoride and protease inhibitor (Beyotime)), left on ice for 30 minutes, then centrifuged at 14000 g at 4° C. for 10 minutes, and the supernatant was taken to detect IKZF1 and IKZF3 protein level by Western blot.
(§2) The total protein concentration in the supernatant of cell lysis was determined by BCA protein quantitative kit (Tiangen). According to the concentration of total protein detected by BCA, the supernatant was adjusted to 0.2 μg/μL with PBS and 5× SDS-PAGE protein loading buffer (Beyotime), bathed in water at 100° C. for 10 minutes, then placed in ice bath for 5 minutes, centrifuged at 14000 g and 4° C. for 5 minutes, and then collected as WB loading sample. Prefabricated glue (KeyGEN) was used for protein electrophoresis with a loading amount of 10 μL (total protein 2 μg). After Tris-MOPS-SDS electrophoresis solution (Adamas), 120V constant pressure electrophoresis was performed. After electrophoresis, the protein on the adhesive strip was transferred to PVDF membrane with a constant current of […] for 50 minutes. After the membrane was transferred, the membrane was incubated in 5% bovine serum albumin solution for 2 hours at room temperature. After blocking, PVDF membranes were incubated with IKZF1 primary antibody (CST) and IKZF3 primary antibody (Abcam) overnight at 4°, the membranes were washed with TBST buffer (2.4 g Tris, 8.8 g NaCl, 1.5 mL Tween 20, pH adjusted to 7.4, constant volume to IL) for 30 minutes, incubated with secondary antibody (Abcam) for 2 hours at room temperature, finally incubated with Clarity Western ECL Substrate(BIO-RAD) for 5 minutes for luminescence development, chemiluminescence imaging system (Clinx, chemiScope 6200 Touch) for development and protein mapping photography. The protein map was analyzed by Clinx chemiluminescence analysis software for grayscale values. Using the formula: grayscale correction value=(target protein grayscale value/corresponding internal reference grayscale value)×10^3, the grayscale correction value of each sample was calculated. The degradation rate was calculated by comparing with the grayscale correction value of the control group.

For assay [4], the target named is T4, IKZF3 in L363 cells (Homo sapiens, UniProt Q96SW2+Q9UKT9).
T4 construct: endogenous in cells; host or cells: L363
T4 sequence (Q9UKT9 whole entry): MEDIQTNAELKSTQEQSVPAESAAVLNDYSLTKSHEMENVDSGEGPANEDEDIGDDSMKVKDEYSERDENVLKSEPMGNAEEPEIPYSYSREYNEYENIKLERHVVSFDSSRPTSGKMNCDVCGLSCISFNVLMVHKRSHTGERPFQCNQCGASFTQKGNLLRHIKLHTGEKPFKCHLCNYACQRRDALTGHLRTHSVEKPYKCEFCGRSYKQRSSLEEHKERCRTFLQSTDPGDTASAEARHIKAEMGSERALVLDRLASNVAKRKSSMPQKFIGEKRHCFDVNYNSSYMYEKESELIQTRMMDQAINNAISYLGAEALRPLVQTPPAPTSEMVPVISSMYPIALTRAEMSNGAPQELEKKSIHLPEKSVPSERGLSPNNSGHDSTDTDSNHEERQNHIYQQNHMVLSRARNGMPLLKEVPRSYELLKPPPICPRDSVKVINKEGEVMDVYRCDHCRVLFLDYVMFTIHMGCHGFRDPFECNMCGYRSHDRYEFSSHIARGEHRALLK
T4 sequence (Q96SW2 whole entry): as the sequence (Q96SW2 whole entry) above
T4 sequence (Q16531 whole entry partner): as the sequence (Q16531 whole entry partner) above
Description: Degradation of IKZF3 in L363 cells (Western blot). It counts as cell-based. Particulars: 1000 nM, 16 hours. The protocol:
as §1, §2

Assay [5] concerns Interleukin-6 (IL-6) in LPS-induced human PBMC. Description: Cytokine secretion of LPS-induced human PBMC, IL-6 AlphaLISA detection. The class given is cell-based. To be noted: inhibition of IL-6, compound 1 hour or 20 hours, then LPS 100 ng/mL 5 hours. The protocol: Frozen human PBMC (Milestone, PB010C) was resuspended to RPMI 1640 medium (Gibco, A1049101) after resuscitation, supplemented with 10% fetal bovine serum (Gibco, 10099141), 100 U/mL penicillin and 100 μg/mL streptomycin (Gibco, 15140122). On the same day, 150 μL of PBMC was spread in each well of a 96-well transparent cell plate (Labserv, 310109008), so that the cell density was 2×10^5 cells/well. Then 50 μL diluted compound solution was added to the corresponding cell-covered wells to make the final concentration of the compound in the range of 0.026-10000 nM. The final concentration of DMSO was 0.25%. After the drug-treated cell plate was cultured at 37° C. for 1 hour or 20 hours in a 5% CO2 incubator, 10 μL LPS (0111:B4) (Sigma, L4391) was added with a final concentration of 100 ng/mL. The cell plate was again placed in a 5% CO2 incubator at 37° C. for 5 hours, centrifuged at 2000 rpm for 10 minutes, and 100 μL cell supernatant was taken from each well and transferred to a new 96-well transparent cell plate for cytokine concentration test, which was frozen at −80° C. to be tested.
The concentration of IL-6 in the supernatant of LPS-induced human PBMC cells was determined using interleukin-6 (IL-6) AlphaLISA detection kit (PerkinElmer, AL223 C).
According to the product instructions, IL-6 standard solutions with different concentrations were prepared in the concentration range of […]. 2 μL of IL-6 standard solution at various concentrations and the cell supernatant sample to be tested were taken, respectively added to white 384 well plates (PerkinElmer, 6007299), then a mixed solution of 8 μL of 5× anti-IL-6 receptor beads (final concentration: 10 μg/mL) and biotin-labeled anti-IL-6 antibody (final concentration 1 nM) was added to each well, and incubated at 23° C. for 60 minutes. Finally, 10 μL of 2× streptavidin-labeled donor beads (final concentration: 40 μg/mL) were added to each well and incubated at 23° C. for 30 minutes in the absent of light. After the incubation, the AlphaLISA signal value was determined in the AlphaScreen standard setting mode on the microplate reader EnVision(PerkinElmer, 2105). The standard curve was drawn by the AlphaLISA signal value of each concentration IL-6 standard solution, and then based on the corresponding concentration on the standard curve for the AlphaLISA signal value of the sample to be tested, the IL-6 concentration of each cell lysis supernatant was determined. Compared with the IL-6 concentration of the control group, the inhibition rate of the compound at each concentration was calculated, and then IC50 value of the compound was calculated by fitting the nonlinear curve with the logarithmic concentration-inhibition rate by GraphPad Prism 7.

`CC(C)(O)c1cc2nn(C3CCN(CCC4CCC5(CC4)CCN(C(=O)c4ccc(F)c(N6CCC(=O)NC6=O)c4)CC5)CC3)cc2cc1NC(=O)c1cccc(C(F)(F)F)n1` [Example 34, N-(2-(1-(2-(3-(3-(2,4-dioxotetrahydro-pyrimidin-1 (2H)-yl)-4-fluoro-benzoyl)-3-azaspiro[5.5]undec-9-yl)ethyl)piperidin-4-yl)-6-(2-hydroxyprop-2-yl)-2H-indazol-5-yl)-6-(trifluoro-methyl) pyridinecarbox-amide] came in with a 50% inhibitory concentration (IC50) in assay [1] of 16.5 nM. Also, in assay [2], it took 2.5 nM to reach half-maximal degradation (DC50) and the Dmax stood at 98.1%. Moreover, the IKZF1 degradation rate in assay [3] is recorded as 10.2 ± 1.8%. The IKZF3 degradation rate in assay [4] is on record as −2.2 ± 2.8%.

As for `CC(C)(O)c1cc2nn(C3CCN(CCC4CCC5(CC4)CCN(C(=O)c4ccc(F)c(C6CCC(=O)NC6=O)c4)CC5)CC3)cc2cc1NC(=O)c1cccc(C(F)(F)F)n1` (centres unmarked) [Example 40, N-(2-(1-(2-(3-(3-(2,6-dioxopiperidin-3-yl)-4-fluoro-benzoyl)-3-azaspiro [5.5]undec-9-yl)ethyl)piperidin-4-yl)-6-(2-hydroxyprop-2-yl)-2H-indazol-5-yl)-6-(trifluoro-methyl) pyridinecarbox-amide], the IC50 in assay [1] is 35.1 nM. In addition, in assay [2], half-maximal degradation (DC50) was put at 4.8 nM and the Dmax came out at 98%. The molecule also gave an IKZF1 degradation rate in assay [3] of 53.8 ± 2.0%. Moreover, in assay [4], the IKZF3 degradation rate is reported as 9.8 ± 2.0%.

In assay [1], `CN(CCC1CCN(C(=O)c2ccc(Cl)c(N3CCC(=O)NC3=O)c2)CC1)C[C@H]1CC[C@H](n2cc3cc(NC(=O)c4cccc(C(F)(F)F)n4)c(C(C)(C)O)cc3n2)CC1` [Example 55, N-(2-((1r,4r)-4-(((2-(1-(4-chloro-3-(2,4-dioxotetrahydro-pyrimidin-1 (2H)-yl)benzoyl)piperidin-4-yl)ethyl) (methyl)amino)methyl)cyclohexyl)-6-(2-hydroxyprop-2-yl)-2H-indazol-5-yl)-6-(trifluoro-methyl) pyridinecarbox-amide] returned an IC50 of 10.6 nM. In assay [2], this molecule came in with a DC50 of 2.7 nM and a Dmax of 98.1%. The molecule also registered an IC50 in assay [5] of 0.8 nM.

In assay [1], `COc1cc2nn([C@H]3CC[C@H](N(C)C4CCC5(CC4)CCN(C(=O)c4ccc(Cl)c(N6CCC(=O)NC6=O)c4)CC5)CC3)cc2cc1NC(=O)c1cccc(C(F)(F)F)n1` [Example 56] returned an IC50 of 3.6 nM. In addition, in assay [2], the DC50 stood at 3 nM and the Dmax was 97%. The same molecule registered a 50% inhibitory concentration (IC50) in assay [5] of 3.2 nM.

Consider `Nc1cccc2c1C(=O)N(C1CCC(=O)NC1=O)C2=O` (centres unmarked) [Pomalidomide], for which the IKZF1 degradation rate in assay [3] is reported as 99.7 ± 0.2%. For the same molecule, the IKZF3 degradation rate in assay [4] is recorded as 98.6 ± 0.6%.

For orientation: IC50 means the midpoint of a concentration-inhibition curve. Read a high IC50 as weaker potency. Broadly, the DC50 is the concentration at which degradation of the target reaches its halfway point. Usually Dmax stands for the largest share of the target that was removed.
